Assay results as given in patent US11162902B2, “Metasurfaces comprised of nanosphere oligomers with uniform narrow gap spacings, their method of fabrication and applications in sensing” (The Regents of the University of California, priority 2017, dated 2021).
≈ marks a conversion by molar mass, not a printed value.

Experiments:
[1] = system: P. aeruginosa strain PA14; settings: cited from earlier work
P. aeruginosa biofilms = assay: Antibiotic susceptibility measurements of surface-attached bacteria / biofilms (live/dead staining, dead cell fraction); assay type: cell-based, Pseudomonas aeruginosa; settings: 600 μg·mL^−1 carbenicillin in PBS for 3 h; growth 6, 10, 15, 24 h; FIG. 18E

In the case of `CC1(C)S[C@@H]2[C@H](NC(=O)C(C(=O)O)c3ccccc3)C(=O)N2[C@H]1C(=O)O` (some centres unmarked) [carbenicillin], the minimum inhibitory concentration [1] is given as 128 µg/mL (≈ 338 µM) and the “antibiotic susceptibility of surface-attached bacteria at different stages of biofilm growth” value (P. aeruginosa biofilms) is given as “susceptibility decreased significantly with increasing growth time”.
